Source: patent US20250268848A1, “COMPOSITIONS COMPRISING ENDOSIDIN 2 FOR REDUCING SARS-COV-2 INFECTION” (HENRY FORD HEALTH SYSTEM, priority 2021, published 2025)

Key:
PBMCs = experiment: Flow cytometry of ACE2 and TMPRSS2 cell surface expression in PBMCs stimulated ex vivo; assay type: cell-based, human; conditions: mean±SEM
Description: Mouse IgG1 antibodies were used as the isotype controls.
PBMCs were ex vivo cultured with R848, LPS or medium alone for 4 hrs, 24 hrs, and 48 hrs. Representative flow cytometric analysis of surface expression of ACE2 and TMPRSS2 in cDC.
PBMCs were ex vivo cultured with PMA plus ionomycin for 4 h. Representative flow cytometric analysis of surface expression of TMPRSS2 in CD4+, CD8+ and total T cells.
For ex vivo stimulation assays analyzed by flow cytometry, fresh PBMCs were isolated from CPT tubes using a standard protocol. Briefly, whole blood cells were diluted with Ca^2+-free and Mg^2+-free PBS buffer (Corning, NY) containing 2% fetal bovine serum (FBS, R&D Systems, Minneapolis, MN) and 2 mM EDTA (VWR Life Science, Radnor, PA) and slowly overlaid onto Ficoll-Paque™ (GE healthcare, Chicago, IL) at 2:1 ratio by volume. The samples were centrifuged at RT for 20 min at 800×g with no braking. Next, the mononuclear cell layer at the plasma-Ficoll interface was moved into a new 50 ml tube and washed with PBS buffer and red blood cell lysis buffer at RT for 5 min. The isolated PBMCs were used on the day of isolation or placed at −80° C. for storage. Two million fresh or thawed PBMCs were transferred to each well of a round-bottom 96-well culture plate (Thermo Fisher Scientific) in 200 μL of RPMI medium containing 10% FBS. The thawed PBMCs were recovered for 2 h at 37° C. with 5% C02. In some experiments, PBMCs were treated with different concentrations of ES2 (Sigma Aldrich) or 0.25% DMSO (the vehicle for ES2 at the highest concentration; ATCC, Manassas, VA) for 1-2 h during recovery stage. The fresh and recovered cells were then cultured with 1 μg/ml R848, LPS, or medium alone for 4 h. For TCR-independent T cell stimulation, PBMCs were cultured in RPMI medium containing 10% FBS in the presence of phorbol 12-myristate 13-acetate (PMA) (50 ng/ml) and ionomycin (1 μM) for a total of 4 h at 37° C. After incubation, the cells were washed with wash buffer in PBS containing 2% FBS and 1 mM EDTA prior to staining.
Flow cytometry methods. Single-cell suspensions were centrifuged at 450×g for 7 min, resuspended in ice-cold staining buffer (1×PBS with 2% FBS), and placed in a 96-well round-bottom plate (Thermo Fisher Scientific). After incubation with human Fe receptor blocking solution (Biolegend, San Diego, CA) at 4° C. for 15 min, cells were stained with a mixture of fluorescent surface antibodies at 4° C. for 30 min. For intracellular staining, the cells were fixed with IC Fixation Buffer (eBiosciences™, Thermo Fisher Scientific) at 4° C. for 30 min followed by incubation with fluorescent intracellular antibody cocktail in 1× Intracellular Fixation & Permeabilization Buffer (eBiosciences™, Thermo Fisher Scientific) at 4° C. for 30 min. The full list of fluorescent antibodies used is in Table 1 below. DAPI was added to the unfixed cells with surface staining at a final concentration of 1 μg/ml immediately before sample acquisition. The stained samples were then acquired on a FACSCelesta™ flow cytometer (BO Biosciences) using BO FACSDiva software version 8.0.2 (BO Biosciences). All data were analyzed using FlowJo 10.5.3 (BO Biosciences).
Methods. Flow cytometry and qRT-PCR were utilized as described in Example 1.

blood myeloid cells = experiment: Mass cytometry (CyTOF) of surface ACE2 in whole blood myeloid cells stimulated ex vivo with R848; assay type: cell-based, human; conditions: 4 h ex vivo, COVID-19 patients and healthy controls, mean±SEM
[1] = test system: ACE2 translocation to the cell surface of CD14+ monocytes; experiment: Flow cytometry of ACE2 surface expression in PBMCs pre-treated with ES2 before R848 or LPS; assay type: cell-based, human; conditions: PBMCs pre-treated with ES2 1-2 h, then R848 or LPS 4 h
Description: Bars represent mean±SEM of biologically independent samples, (n=3/group for 40 μM ES2 condition; n=4/group for all other conditions).
For ex vivo stimulation assays analyzed by flow cytometry, fresh PBMCs were isolated from CPT tubes using a standard protocol. Briefly, whole blood cells were diluted with Ca^2+-free and Mg^2+-free PBS buffer (Corning, NY) containing 2% fetal bovine serum (FBS, R&D Systems, Minneapolis, MN) and 2 mM EDTA (VWR Life Science, Radnor, PA) and slowly overlaid onto Ficoll-Paque™ (GE healthcare, Chicago, IL) at 2:1 ratio by volume. The samples were centrifuged at RT for 20 min at 800×g with no braking. Next, the mononuclear cell layer at the plasma-Ficoll interface was moved into a new 50 ml tube and washed with PBS buffer and red blood cell lysis buffer at RT for 5 min. The isolated PBMCs were used on the day of isolation or placed at −80° C. for storage. Two million fresh or thawed PBMCs were transferred to each well of a round-bottom 96-well culture plate (Thermo Fisher Scientific) in 200 μL of RPMI medium containing 10% FBS. The thawed PBMCs were recovered for 2 h at 37° C. with 5% C02. […]
Flow cytometry methods. […] All data were analyzed using FlowJo 10.5.3 (BO Biosciences). […]

Hela cells = conditions: cited from earlier work

Compound | ACE2+ TMPRSS2+ cDCs (PBMCs) | cell surface ACE2 localization in cDCs (PBMCs) | surface expression of TMPRSS2 in cDCs (PBMCs) | surface expression of ACE2 in CD14+ classic monocytes (blood myeloid cells) [%] | rapid translocation of ACE2 to the monocyte cell surface [1] | recycling of endocytosed transferrin to the plasma membrane (Hela cells)
lipopolysaccharide [LPS] | 1.1%±0.21 | 8.9%±0.98 | 3.2%±0.87 |  |  | 
CCOCc1nc2c(N)nc3ccccc3c2n1CC(C)(C)O [R848, resiquimod] | 1.1%±0.21 | 8.9%±0.98 | 3.2%±0.87 | 11.0±2.7 |  | 
COc1cc(/C=N/NC(=O)c2cccc(F)c2)cc(I)c1O [ES2, 3-fluoro-benzoic acid, (2E)-2-[(4-hydroxy-3-iodo-5-methoxyphenyl)methylene]hydrazide] |  |  |  |  | blocked | inhibits
